Reference: patent US20010053796A1, “Delta-aminolevulinic acid for prevention and treatment of infection microorganisms and parasite” (priority 2000, published 2001)

Assays:
[1] = test system: Edwardsiella tarda; assay: Prevention effect for artificial infection (abdominal injection of bacteria); format: in vivo, Sebastes schlegeli; conditions: for Mortality during Cultivation: dead of 20 fish
Protocol: (§1) The water temperature was maintained at 20° C. (±2° C. ) throughout the experiment.
(§2) As the same method of above Experiment 1, fishes of both control group and experiment group were prepared and artificially infected by direct abdominal injection of Edwardsiella tarda 10^5 CFU per 1 fish. Each experimental fish was moved to fish tanks for monitoring and monitored for mortality according to infection for 2 weeks and viability after 2 weeks.

[2] = test system: Streptococcus sp.; assay: as above; format: in vivo, Bastardhalibut; conditions: for Mortality during Cultivation: dead of 20 fish
Protocol: as §1, §2
Bastardhalibut and Sebastes schlegeli were infected by Streptococcus sp. by abdominal injection with the same method of fish breeding, δ-aminolevulinic acid treatment and artificial infection carried out in Experiment 1 and 2. Each experimental fish was moved to fish tanks for monitoring and monitored for mortality according to infection for 2 weeks. […] The treated group, with δ-aminolevulinic acid by tank administration method and oral administration method, has shown viability of higher than 65%.

[3] = test system: Edwardsiella tarda; assay: Treatment effect of infected fry by digestion in breeding water; format: in vivo, Bastardhalibut; conditions: 50 fish
Protocol: (§3) To be used as experimental fish in this example, fry of Bastardhalibut and Sebastes schlegeli (mean body weight 2 g), 50 per each breeding tank, were preliminary-bred for 1 week and stabilized. […] The artificial infection methods were carried out by the digestion method. Pathogenic organisms were applied into fish tanks and digested in seawater, wherein the concentration of organisms has adjusted to 10^4 CFU/mL for an hour, and infected. Treatment conditions are as follows. After artificial infection. Infected fishes were moved to fish tanks and kept in the infection period for 3 days. On the fourth day of infection, 0.1, 1.0, 5 and 10 ppm δ-aminolevulinic acid were introduced to use as breeding water. Fish was bred in aerobic condition for 1˜24 hours without exchanging water and then, bred for 2 weeks after exchanging with clean seawater. Then, they were monitored to check for the mortality of fish according to infection. In the control groups, after each bacteria were identically introduced through the digestion method, mortality of Bastardhalibut and Sebastes schlegeli according to bacteria infection was identified while breeding with non-treated condition of δ-aminolevulinic acid. As a result of this experiment, δ-aminolevulinic acid-treated groups have shown high viability in both Bastardhalibut (Table 12˜Table 15) and Sebastes schlegeli (Table 16˜Table 19).

[4] = test system: Staphylococcus epidermis; assay: as above; format: in vivo, Bastardhalibut; conditions: 50 fish
Protocol: as §3

[5] = test system: Vibrio anguillarum; assay: as above; format: in vivo, Bastardhalibut; conditions: 50 fish
Protocol: as §3

[6] = test system: Staphylococcus sp.; assay: as above; format: in vivo, Bastardhalibut; conditions: 50 fish
Protocol: as §3

[7] = test system: Streptococcus sp.; assay: as above; format: in vivo, Bastardhalibut; conditions: 50 fish
Protocol: as §3

[8] = test system: Pseudomonas sp.; assay: as above; format: in vivo, Bastardhalibut; conditions: 50 fish
Protocol: as §3

[9] = test system: Sebastes schlegeli; assay: Breeding before Scutica artificial infection (mortality during cultivation); format: in vivo; conditions: 1˜3 weeks; for Mortality during Cultivation: dead of 20 fish
Protocol: The water temperature was maintained at 20° C. (±2° C.) throughout the experiment.

[10] = digestion 0.1 ppm from 4th day of infection, Bastard halibut fry
[11] = digestion 1.0 ppm from 4th day of infection, Bastardhalibut fry
[12] = digestion 5.0 ppm from 4th day of infection, in Bastard halibut
[13] = digestion 10 ppm from 4th day of infection, Bastardhalibut fry
[14] = digestion 10 ppm from 4th day of infection
[15] = digestion 5.0 ppm from 4th day of infection

NCC(=O)CCC(=O)O [δ-aminolevulinic acid]
Viability ([1]; orally, 0.01 ppm in feed): 70%
Mortality during Cultivation ([1]; orally, 0.01 ppm in feed): 6
Viability ([1]; orally, 1.0 ppm in feed): 80%
Mortality during Cultivation ([1]; orally, 1.0 ppm in feed): 4
Viability ([1]; orally, 10 ppm in feed): 85%
Mortality during Cultivation ([1]; orally, 10 ppm in feed): 3
Viability ([1]; orally, 100 ppm in feed): 90%
Mortality during Cultivation ([1]; orally, 100 ppm in feed): 2
Viability ([1]; to fish tanks, 0.01 ppm): 65%
Mortality during Cultivation ([1]; to fish tanks, 0.01 ppm): 7
Viability ([1]; to fish tanks, 0.1 ppm): 75%
Mortality during Cultivation ([1]; to fish tanks, 0.1 ppm): 5
Viability ([1]; to fish tanks, 1.0 ppm): 90%
Mortality during Cultivation ([1]; to fish tanks, 1.0 ppm): 2
Viability ([1]; to fish tanks, 10 ppm): 85%
Mortality during Cultivation ([1]; to fish tanks, 10 ppm): 3
Viability ([2]; orally, 0.1 ppm in feed): 65%
Mortality during Cultivation ([2]; orally, 0.1 ppm in feed): 7
Viability ([2]; orally, 1.0 ppm in feed): 65%
Mortality during Cultivation ([2]; orally, 1.0 ppm in feed): 7
Viability ([2]; orally, 10 ppm in feed): 80%
Mortality during Cultivation ([2]; orally, 10 ppm in feed): 4
Viability ([2]; orally, 100 ppm in feed): 85%
Mortality during Cultivation ([2]; orally, 100 ppm in feed): 3
Viability ([2]; to fish tanks, 0.01 ppm): 60%
Mortality during Cultivation ([2]; to fish tanks, 0.01 ppm): 8
Viability ([2]; to fish tanks, 0.1 ppm): 65%
Mortality during Cultivation ([2]; to fish tanks, 0.1 ppm): 7
Viability ([2]; to fish tanks, 1.0 ppm): 75%
Mortality during Cultivation ([2]; to fish tanks, 1.0 ppm): 5
Viability ([2]; to fish tanks, 10 ppm): 85%
Mortality during Cultivation ([2]; to fish tanks, 10 ppm): 3
Viability [3, 10]: 54%
Viability [3, 11]: 76%
Viability [3, 12]: 86%
Viability [3, 13]: 84%
Viability [4, 10]: 42%
Viability [4, 11]: 66%
Viability [4, 12]: 80%
Viability [4, 14]: 84%
Viability [5, 10]: 56%
Viability [5, 11]: 66%
Viability [5, 15]: 84%
Viability [5, 13]: 80%
Viability [6, 10]: 54%
Viability [6, 11]: 66%
Viability [6, 15]: 84%
Viability [6, 13]: 84%
Viability [7, 10]: 46%
Viability [7, 11]: 64%
Viability [7, 12]: 84%
Viability [7, 13]: 90%
Viability [8, 10]: 50%
Viability [8, 11]: 70%
Viability [8, 12]: 80%
Viability [8, 14]: 84%
Viability ([9]; oral (100 ppm per feed 1 kg)): 100%
Mortality during Cultivation ([9]; oral (100 ppm per feed 1 kg)): 0
Viability ([9]; to fish tanks (10 ppm)): 100%
Mortality during Cultivation ([9]; to fish tanks (10 ppm)): 0
